Laboratory results published in ChEMBL document CHEMBL1201862, “PubChem BioAssay data set” (2004).
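The compound was tested at five concentrations on cells cultured in 96-well plates, with a 48-hour exposure period. At the GI50, growth is halved.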 Active and inactive are the calls of the source. Cut-off read from the data, not from the text of the source: active = GI50 up to about 1.1 µM and inactive = higher.

Legend:
Assay in all cases: inhibition of tumour cell growth, NCI panel, 48 h
UACC-62 = tested on: UACC-62
K562 = tested on: K562
UACC-257 = tested on: UACC-257
HT-29 = tested on: HT-29
HCT-15 = tested on: HCT-15
HCC 2998 = tested on: HCC 2998
A498 = tested on: A498
SNB-19 = tested on: SNB-19
IGROV-1 = tested on: IGROV-1
RXF 393 = tested on: RXF 393
SNB-78 = tested on: SNB-78
NCI-H460 = tested on: NCI-H460
RXF 631 = tested on: RXF 631
NCI-H23 = tested on: NCI-H23
SF-539 = tested on: SF-539
SNB-75 = tested on: SNB-75
SN12C = tested on: SN12C
HOP-62 = tested on: HOP-62
CCRF-CEM = tested on: CCRF-CEM
SK-MEL-2 = tested on: SK-MEL-2
OVCAR-3 = tested on: OVCAR-3
HOP-92 = tested on: HOP-92
OVCAR-8 = tested on: OVCAR-8
SF-295 = tested on: SF-295
HOP-18 = tested on: HOP-18
SK-MEL-5 = tested on: SK-MEL-5
U-251 = tested on: U-251
HL-60 = tested on: HL-60
LXFL 529 = tested on: LXFL 529
RPMI-8226 = tested on: RPMI-8226
A549 = tested on: A549
OVCAR-5 = tested on: OVCAR-5
KM12 = tested on: KM12
M19-MEL = tested on: M19-MEL
786-0 = tested on: 786-0
UO-31 = tested on: UO-31
SK-MEL-28 = tested on: SK-MEL-28
COLO 205 = tested on: COLO 205
KM-20L2 = tested on: KM-20L2
NCI-H522 = tested on: NCI-H522
Malme-3M = tested on: Malme-3M
SK-OV-3 = tested on: SK-OV-3
ACHN = tested on: ACHN
M14 = tested on: M14
TK-10 = tested on: TK-10
HCT-116 = tested on: HCT-116
SF-268 = tested on: SF-268
EKVX = tested on: EKVX
LOX IMVI = tested on: LOX IMVI
MOLT-4 = tested on: MOLT-4
NCI-H226 = tested on: NCI-H226
DLD-1 = tested on: DLD-1
SR = tested on: SR
MDA-N = tested on: MDA-N
CAKI-1 = tested on: CAKI-1
SW-620 = tested on: SW-620
Hs-578T = tested on: Hs-578T
OVCAR-4 = tested on: OVCAR-4
BT-549 = tested on: BT-549
T47D = tested on: T47D
MDA-MB-435 = tested on: MDA-MB-435
MDA-MB-231 = tested on: MDA-MB-231
NCI/ADR-RES = tested on: NCI/ADR-RES
DU-145 = tested on: DU-145
DMS-114 = tested on: DMS-114
XF498 = tested on: XF498
MCF7 = tested on: MCF7
PC-3 = tested on: PC-3
DMS-273 = tested on: DMS-273

CC(=O)Oc1c(C)c(-c2ccccc2)c(C)c(-c2ccccc2)c1C(=S)c1ccccc1
GI50 (UACC-62): > 100 µM (inactive) | GI50 (K562): > 100 µM (inactive) | GI50 (UACC-257): > 100 µM (inactive) | GI50 (HT-29): > 100 µM (inactive) | GI50 (HCT-15): > 100 µM | GI50 (HCC 2998): > 100 µM (inactive) | GI50 (A498): > 100 µM (inactive) | GI50 (SNB-19): > 100 µM (inactive) | GI50 (IGROV-1): > 100 µM (inactive) | GI50 (RXF 393): > 100 µM (inactive) | GI50 (SNB-78): > 100 µM (inactive) | GI50 (NCI-H460): > 100 µM (inactive) | GI50 (RXF 631): > 100 µM (inactive) | GI50 (NCI-H23): > 100 µM (inactive) | GI50 (SF-539): > 100 µM (inactive) | GI50 (SNB-75): > 100 µM (inactive) | GI50 (SN12C): > 100 µM (inactive) | GI50 (HOP-62): > 100 µM (inactive) | GI50 (CCRF-CEM): > 100 µM (inactive) | GI50 (SK-MEL-2): > 100 µM (inactive) | GI50 (OVCAR-3): > 100 µM (inactive) | GI50 (HOP-92): > 100 µM (inactive) | GI50 (OVCAR-8): > 100 µM (inactive) | GI50 (SF-295): > 100 µM (inactive) | GI50 (HOP-18): > 100 µM (inactive) | GI50 (SK-MEL-5): > 100 µM (inactive) | GI50 (U-251): > 100 µM (inactive) | GI50 (HL-60): 35.7 µM (inactive) | GI50 (LXFL 529): > 100 µM (inactive) | GI50 (RPMI-8226): 70.8 µM (inactive) | GI50 (A549): > 100 µM (inactive) | GI50 (OVCAR-5): > 100 µM (inactive) | GI50 (KM12): > 100 µM (inactive) | GI50 (M19-MEL): > 100 µM (inactive) | GI50 (786-0): > 100 µM (inactive) | GI50 (UO-31): > 100 µM (inactive) | GI50 (SK-MEL-28): > 100 µM (inactive) | GI50 (COLO 205): > 100 µM (inactive) | GI50 (KM-20L2): 67.3 µM (inactive) | GI50 (NCI-H522): > 100 µM (inactive) | GI50 (Malme-3M): > 100 µM (inactive) | GI50 (SK-OV-3): > 100 µM (inactive) | GI50 (ACHN): > 100 µM (inactive) | GI50 (M14): > 100 µM (inactive) | GI50 (TK-10): > 100 µM (inactive) | GI50 (HCT-116): > 100 µM (inactive) | GI50 (SF-268): > 100 µM (inactive) | GI50 (EKVX): > 100 µM (inactive) | GI50 (LOX IMVI): > 100 µM (inactive) | GI50 (MOLT-4): 93.3 µM (inactive) | GI50 (NCI-H226): > 100 µM (inactive) | GI50 (DLD-1): > 100 µM (inactive) | GI50 (SR): 41.9 µM (inactive)

CCN(CCO)CCNc1ccc(C)c2sc3ccccc3c(=O)c12
GI50 (UACC-62): 1.76 µM (inactive) | GI50 (K562): 4.31 µM (inactive) | GI50 (UACC-257): 2.75 µM (inactive) | GI50 (MDA-N): 1.74 µM (inactive) | GI50 (HT-29): 2.52 µM (inactive) | GI50 (CAKI-1): 4.73 µM (inactive) | GI50 (SW-620): 2.28 µM (inactive) | GI50 (HCT-15): 4.15 µM | GI50 (HCC 2998): 2.28 µM (inactive) | GI50 (A498): 15 µM (inactive) | GI50 (SNB-19): 11 µM (inactive) | GI50 (IGROV-1): 4.2 µM (inactive) | GI50 (Hs-578T): 2.25 µM (inactive) | GI50 (OVCAR-4): 7.8 µM (inactive) | GI50 (RXF 393): 1.25 µM (inactive) | GI50 (SNB-78): 7.05 µM (inactive) | GI50 (NCI-H460): 1.73 µM (inactive) | GI50 (NCI-H23): 8.05 µM (inactive) | GI50 (BT-549): 13.4 µM (inactive) | GI50 (SF-539): 3.75 µM (inactive) | GI50 (SNB-75): 3.01 µM (inactive) | GI50 (SN12C): 5.24 µM (inactive) | GI50 (HOP-62): 3.97 µM (inactive) | GI50 (CCRF-CEM): 6.04 µM (inactive) | GI50 (SK-MEL-2): 3.59 µM (inactive) | GI50 (OVCAR-3): 10.2 µM (inactive) | GI50 (HOP-92): 4.37 µM (inactive) | GI50 (OVCAR-8): 4.06 µM (inactive) | GI50 (SF-295): 3.82 µM (inactive) | GI50 (HOP-18): 11.9 µM (inactive) | GI50 (SK-MEL-5): 2.59 µM (inactive) | GI50 (U-251): 3.69 µM (inactive) | GI50 (HL-60): 3.37 µM (inactive) | GI50 (T47D): 3.01 µM (inactive) | GI50 (LXFL 529): 2.77 µM (inactive) | GI50 (RPMI-8226): 4.28 µM (inactive) | GI50 (MDA-MB-435): 1.96 µM (inactive) | GI50 (A549): 4.3 µM (inactive) | GI50 (MDA-MB-231): 1.88 µM (inactive) | GI50 (NCI/ADR-RES): 3.07 µM (inactive) | GI50 (DU-145): 10.2 µM (inactive) | GI50 (OVCAR-5): 5.15 µM (inactive) | GI50 (DMS-114): 7.67 µM (inactive) | GI50 (KM12): 3.68 µM (inactive) | GI50 (M19-MEL): 2 µM (inactive) | GI50 (786-0): 2.96 µM (inactive) | GI50 (UO-31): 5.41 µM (inactive) | GI50 (SK-MEL-28): 2.02 µM (inactive) | GI50 (COLO 205): 1.63 µM (inactive) | GI50 (KM-20L2): 2.59 µM (inactive) | GI50 (NCI-H522): 4.89 µM (inactive) | GI50 (Malme-3M): 3.44 µM (inactive) | GI50 (XF498): 3.31 µM (inactive) | GI50 (MCF7): 1.8 µM (inactive) | GI50 (SK-OV-3): 5.66 µM (inactive) | GI50 (PC-3): 3.31 µM (inactive) | GI50 (ACHN): 4.26 µM (inactive) | GI50 (M14): 1.78 µM (inactive) | GI50 (DMS-273): 2.36 µM (inactive) | GI50 (TK-10): 8.81 µM (inactive) | GI50 (HCT-116): 2.88 µM (inactive) | GI50 (SF-268): 6.85 µM (inactive) | GI50 (EKVX): 12.5 µM (inactive) | GI50 (LOX IMVI): 2.24 µM (inactive) | GI50 (MOLT-4): 4.43 µM (inactive) | GI50 (NCI-H226): 4 µM (inactive) | GI50 (DLD-1): 3.83 µM (inactive) | GI50 (SR): 6.01 µM (inactive)
